Results on nine compounds are retold here after patent US7674456B2, “Breast cancer cell lines and uses thereof” (priority 2004, dated 2010).

In the assay the test system is tumor cells from right chest wall lesion (mammary carcinoma cells). Nature of the assay: Ex vivo drug response testing of fresh tumor specimen (DISC, MTT and redox assays). It counts as cell-based, human. The arrangement: key to ASSAY RESULT: Sensitive: the drug inhibits the cell growth or proliferation of the cell to a greater degree than is expected for an appropriate control; Resistant: the drug inhibits the cell growth or proliferation of the cell to a lesser degree than is expected for an appropriate control. The note with it: for ASSAY RESULT: fresh tumor cells, compared with a database of assays of similar technical characteristics; for activity in vitro (in words): summary of the table. The procedure: An unfixed portion of the tumor was further analyzed for response to several drugs. A specimen consisted of 1 piece of yellow, white, and red tissue, obtained from the right chest wall lesion. The piece was soft and sticky in texture, measured 0.8×1.4 cm, and weighed 0.47 gm. The specimen was minced to individual pieces smaller than one mm with surgical scissors and digested for 1.3 hours with collagenase-DNAse. Viable tumor cells were enriched by Ficoll-diatriozate centrifugation. Cytospin slides were prepared, air-dried, and stained with Fast Green/Hamatoxyline-eosin. On this cytology preparation obtained from mechanically-dissociated, enzyme-digested tissue, there was a collection of somewhat pleomorphic tumor cells, consistent with mammary carcinoma cells. Tumor cells were present as loose cell clusters (60% of total tumor cells) and, less commonly, as discohesive single cells (40% of total tumor cells). The tumor cells measured 22-25 microns in diameter and had N/N+C ratios of 0.6-0.8. […] Nucleoli were variably prominent. There were no cells with large clear globular areas or secretory material within the cytoplasm. There was slight cytoplasmic and nuclear molding. Approximately 40% of the enriched tumor cell fraction consisted of normal-appearing connective tissue cells and inflammatory cells.
Cells were plated for testing in 3 different assay endpoints. In the DISC assay, the entire contents of the cell culture were cytocentrifuged onto permanent microscope slides and differentially stained to allow discrimination of normal and neoplastic cells and living and dead cells. […] The MTT assay measures mitochondrial metabolism in the entire cell culture. The redox assay measures total metabolic activity in the entire cell culture, using the Alamar Blue reagent to index the oxygen reduction potential of the culture medium. Because of the very low yield of viable tumor cells, only a small drug panel could be tested. Additionally, some drugs could be tested only in a single assay system.
At the conclusion of the culture period, there was 10% spontaneous attrition in viable tumor cell numbers. Formazan signal in the MTT assay was moderate, reflective of moderate cell metabolism, and allowing for an MTT assay of good quality. Percentage of tumor cells as a percentage of total viable cells at the conclusion of the culture was approximately 85. DISC and MTT assays were in reasonably good agreement. The overall technical quality of the assays was good, marred only by the low yield of tumor cells, which severely limited the scope of testing.
Results were compared with a database of assays which had similar technical characteristics, as the technical characteristics of these assays influence the in vitro results, along with the intrinsic drug resistance of the tumor cells. By controlling for technical characteristics such as spontaneous cell loss, metabolic signal at the conclusion of the culture, and tumor cell clustering, biological correlations are improved.
Background: Formazan colour is commonly taken as a measure of viable cells.

With `N.N.O=C([O-])C1(C(=O)[O-])CCC1.[Pt+2]` [Carboplatin], the “ASSAY RESULT” value is “Resistant” and the “activity in vitro (in words)” value is given as “poor activity”.
In the case of `O=P1(N(CCCl)CCCl)NC(OO)CCO1` (centres unmarked) [Cyclophosphamide (4HC)], the “ASSAY RESULT” value is “Sensitive” and the “activity in vitro (in words)” value was “above-average activity”.
Consider `COc1cccc2c1C(=O)c1c(O)c3c(c(O)c1C2=O)C[C@@](O)(C(=O)CO)C[C@@H]3O[C@H]1C[C@H](N)[C@H](O)[C@H](C)O1` [Doxorubicin], for which the “ASSAY RESULT” value is listed as “Intermediate”.
Take `COc1cc([C@@H]2c3cc4c(cc3[C@@H](O[C@@H]3O[C@@H]5CO[C@@H](C)O[C@H]5[C@H](O)[C@H]3O)[C@H]3COC(=O)[C@H]23)OCO4)cc(OC)c1O` [Etoposide]: the “ASSAY RESULT” value is recorded as “Sensitive” and the “activity in vitro (in words)” value is recorded as “above-average activity”.
In the case of `O=c1[nH]cc(F)c(=O)[nH]1` [Fluorouracil], the “ASSAY RESULT” value is listed as “Intermediate”.
For the compound `O=C1c2c(O)ccc(O)c2C(=O)c2c(NCCNCCO)ccc(NCCNCCO)c21` [Mitoxantrone], the “ASSAY RESULT” value was “Intermediate”.
Consider `CC(=O)O[C@H]1C(=O)[C@@]2(C)[C@H]([C@H](OC(=O)c3ccccc3)[C@]3(O)C[C@H](OC(=O)[C@H](O)[C@@H](NC(=O)c4ccccc4)c4ccccc4)C(C)=C1C3(C)C)[C@]1(OC(C)=O)CO[C@@H]1C[C@@H]2O` [Taxol (Paclitaxel), Paclitaxel], for which the “ASSAY RESULT” value was “Sensitive” and the “activity in vitro (in words)” value is given as “best drug in vitro”. Moreover, the “activity in vitro (in words)” value (listed as paclitaxel (Taxol)) is “above-average activity”.
For the compound `CCC1=C[C@@H]2CN(C1)Cc1c([nH]c3ccccc13)[C@@](C(=O)OC)(c1cc3c(cc1OC)N(C)[C@H]1[C@@](O)(C(=O)OC)[C@H](OC(C)=O)[C@]4(CC)C=CCN5CC[C@]31[C@@H]54)C2` [Vinorelbine (Navelbine), Vinorelbine], the “ASSAY RESULT” value is listed as “Intermediate”.
On to Gemcitabine + Cisplatin, for which the “ASSAY RESULT” value is listed as “Intermediate”.
